Patent US20040014772A1, “Compositions and methods for treating glomerular disorders” (priority 2000, published 2004)

What was measured:
[1] = Weight loss/gain of rats before and after treatments (PAN-induced nephrotic syndrome); format: in vivo, rat; details: rats, day 7; PAN 7.5 mg/100 g BW iv; CM 120 mg/kg ip twice a day; PB 400 mg/kg ip every other day; means ± SE
Description: Two different general CYP inhibitors were used, cimetidine (CM) and piperonyl butoxide (PB). Cimetidine has imidazole and cyano groups that inhibit CYP by interacting with the heme moiety. […] To determine the effect of the CYP inhibitors in PAN- induced nephrotic syndrome, CM (120 mg/kg BW) was administered intraperitoneal 1 h prior to PAN injection and then twice a day. Piperonyl butoxide (PB) which yields a metabolite that binds to the heme moiety of CYP, was given intraperitoneal (400 mg/kg BW) 4h before PAN injection and then every other day.
Also, the CYP2B1 inhibitor piperine (PIP), a methylenedioxyphenyl compound found in black and red pepper was used. PIP is believed to inhibit CYP2B1 by forming an inhibitory complex therewith. PIP was administered at a dose of 85 mg/kg of body weight (BW) by an intraperitoneal injection 16 hours prior to PAN injection and then once a day.

CYP2B1 = CYP2B1 content in GEC exposed to PAN (western blot); format: cell-based, rat; details: PAN 1.5 mM for 2 hr at 37° C.; CM 2 mM, PIP 0.2 mM, pyruvate 10 mM
Excerpt: The microsome fraction obtained was subjected to SDS-page electrophoresis in 1 mm slab gels. The separated forms were transferred from gel to a nitrocellulose sheet using a Mini Trans-blot electroblotting unit. The primary antibodies were monoclonal anti-HO-1 (OSA-111, StressGen, Victoria, BC, Canada) and monoclonal anti-CYP2B1 (PM25, Oxford Biomedical Research, Oxford, Mich., USA). Subsequent to primary and secondary antibody (peroxidase-labeled) treatment, the blots were visualized by enhanced chemiluminescence method.

[2] = system: glomerular epithelial cells GEC; assay: PAN-induced cytotoxicity to GEC (trypan blue exclusion, LDH release); format: cell-based, rat; details: PAN 1.5 mM 48 h; preincubation CM 2 mM, PB 25 μM, RN 1 mM, PIP 0.2 mM, pyruvate 10 mM
Description: Rat GEC (kindly provided by both Dr. Saulo Klahr, Washington University School of Medicine, St. Louis, Mo., and Dr. […], University of Texas Health Science Center, San Antonio, Tex.) were maintained in RPMI-1640 medium supplemented with 10% FBS, 15 mM HEPES, insulin, penicillin, streptomycin and L-glutamine in a humidified atmosphere of 95% air-5% CO2 at 37° C. and fed at intervals of 3 days ([…] et al, 1995, Biochem. Biophys. 318(2):286-294). The cells were maintained in 75 Cm^2 tissue culture flasks and the monolayers were subcultured using 0.05% trypsin-0.53 mM EDTA in Hank's balanced salt solution (HBSS). For the experimental study, the cells were grown in 12-well tissue culture plate until confluence. On the day of experiment, the medium was discarded and the confluent GEC monolayer was washed twice with HBSS. The cells were then incubated with various concentrations of PAN (0, 0.1, 0.5, 1.0, 1.5, and 2.0 mM in HBSS) for different periods of time (0, 6 hours, 1 day, 2 days, 3 days and 4 days) at 37° C. At the end of the incubation, the incubation medium was discarded and the GEC monolayer was harvested by trypsinization with 0.05% trypsin-0.53 mM EDTA for 5 min at 37° C. Isolated cells were suspended in HBSS to give about 10^6 cells/ml. PAN-induced cytotoxicity to GEC was measured by the trypan blue exclusion assay (Baliga et al, 1996, Kidney Intl. 50:1118-1124) and lactate dehydrogenase (LDH) release assay (Baliga et al., 1998, Kidney Intl. 53:394-401.). The latter is the percentage of LDH released into the medium, to total LDH recovered from both medium and cellular fraction. […] After the incubation, the cell monolayers were washed twice with HBSS and then incubated with cytotoxic dose of PAN in HBSS for a period of time necessary to induce consistent cytotoxicity ([…], 48 h, based on the concentration and time course studies) at 37° C. PAN induced cytotoxicity on GEC was measured by trypan blue exclusion assay.

CYP = details: cited from earlier work

Compound | Body weight After Treatment (day7) [1] [g] | CYP2B1 content in GEC (CYP2B1) | PAN-induced cytotoxicity to GEC [2] | inhibition of CYP (CYP)
CCCCOCCOCCOCc1cc2c(cc1CCC)OCO2 [PB, piperonyl butoxide] | 253 ± 4 |  |  | 
O=C(/C=C/C=C/c1ccc2c(c1)OCO2)N1CCCCC1 [PIP, piperine] |  | preserved | markedly reduced | 
CNC(=C[N+](=O)[O-])NCCSCc1ccc(CN(C)C)o1 [RN, ranitidine] |  | not | did not show any protection | either weakly or not at all
CC(=O)C(=O)O [pyruvate] |  | preserve | prevent | 
